Experimental findings from ChEMBL document CHEMBL1201862, “PubChem BioAssay data set” (2004) are described below.

The term EC50 denotes the midpoint of the concentration-response curve. For orientation: AC50 means the midpoint of the concentration-response curve, whichever way the signal moves. By IC50 is commonly meant the concentration at which inhibition is half-maximal.

Each structure is given as a SMILES string. Active and inactive are the calls of the source. Some results are limits rather than exact numbers.

A short description of test [1]: Luminescence Cell-Based Dose Response to Identify Activators of Luciferase Translation or Activity in H4-C Neuroglioblastoma Cells. [Related pubchem assays: 1829 (Project Summary), 1814 (Primary HTS)]. The format is functional.
Test [2] in a line: Luminescence Cell-Based Dose Response HTS to Identify Activators of Luciferase Translation or Activity in H4 […] Cells. [Related pubchem assays: 1829 (Project Summary), 1814 (Primary HTS)]. The test is classed as functional.
Test [3] can be described thus: Luminescence Cell-Based Dose Response to Identify Activators of 5'UTR Stem-Loop Driven Prion Protein mRNA Translation in H4-C Neuroglioblastoma Cells. [Related pubchem assays: 1829 (Project Summary), 1814 (Primary HTS)]. The format is functional.
The nature of test [4]: Luminescence Cell-Based Dose Confirmation to Identify Activators of 5'UTR Stem-Loop Driven Alpha-Synuclein mRNA Translation in H4 Neuroglioblastoma Cells. [Related pubchem assays: 1829 (Project Summary), 1814 (Primary HTS)]. The format is functional.
For test [5], the system named is H4. Briefly: Luminescence Cell-Based Dose Response HTS to Identify Activators of 5'UTR Stem-Loop Driven Prion Protein mRNA Translation in H4 Neuroglioblastoma Cells. [Related pubchem assays: 1829 (Project Summary), 1814 (Primary HTS)]. The format is functional. Particulars: Homo sapiens.
For test [6], the system named is BJ. In words: BJ-TERT fibroblast viability loss – cell-based, RAS-independent, luminescence, dose response (AID 1933). The format is functional. Particulars: Homo sapiens.
Test [7] relates to Vero. Briefly: mammalian cell viability reduction – secondary assay, cytotoxicity control for West Nile virus antiviral project, dose response (AID 1650). Particulars: Chlorocebus sabaeus. The test is classed as functional.
For test [8], the target named is Beta-galactosidase (Escherichia coli, UniProt Q8VNN2). Briefly: PubChem AID 485352. The test is classed as functional.
Beta-galactosidase, sequence (Q8VNN2 whole entry): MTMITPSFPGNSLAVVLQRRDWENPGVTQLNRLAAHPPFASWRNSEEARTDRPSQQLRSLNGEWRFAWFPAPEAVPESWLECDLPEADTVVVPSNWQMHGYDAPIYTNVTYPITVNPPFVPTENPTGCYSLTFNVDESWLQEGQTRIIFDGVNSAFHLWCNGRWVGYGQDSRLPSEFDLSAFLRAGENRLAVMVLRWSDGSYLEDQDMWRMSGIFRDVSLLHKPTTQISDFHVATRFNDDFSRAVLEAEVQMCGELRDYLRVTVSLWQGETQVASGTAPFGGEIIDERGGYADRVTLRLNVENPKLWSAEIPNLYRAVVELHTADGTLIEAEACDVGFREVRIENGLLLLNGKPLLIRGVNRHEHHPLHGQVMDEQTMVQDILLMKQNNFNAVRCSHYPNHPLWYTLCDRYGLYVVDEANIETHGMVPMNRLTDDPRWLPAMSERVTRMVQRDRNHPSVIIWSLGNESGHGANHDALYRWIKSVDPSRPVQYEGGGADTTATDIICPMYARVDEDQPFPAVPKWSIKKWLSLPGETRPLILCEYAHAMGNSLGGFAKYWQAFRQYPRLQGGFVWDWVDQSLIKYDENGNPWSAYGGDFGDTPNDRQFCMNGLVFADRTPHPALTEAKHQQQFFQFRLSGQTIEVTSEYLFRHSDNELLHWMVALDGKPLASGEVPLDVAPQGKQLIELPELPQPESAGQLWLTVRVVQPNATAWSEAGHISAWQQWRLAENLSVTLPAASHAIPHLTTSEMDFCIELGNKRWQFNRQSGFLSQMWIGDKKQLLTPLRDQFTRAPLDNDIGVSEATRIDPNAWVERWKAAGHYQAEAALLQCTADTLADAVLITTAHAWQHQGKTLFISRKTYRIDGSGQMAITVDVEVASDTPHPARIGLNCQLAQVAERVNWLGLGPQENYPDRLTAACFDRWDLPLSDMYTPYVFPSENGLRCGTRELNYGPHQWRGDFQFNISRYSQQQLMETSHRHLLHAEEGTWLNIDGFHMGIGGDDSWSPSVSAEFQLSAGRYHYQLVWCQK
The nature of test [9]: DRD fibroblast viability loss – cell-based, non-viral oncogenic, luminescence, dose response (AID 1934). Particulars: Homo sapiens. The test is classed as functional.
Test [10] deals with BJ. Briefly: cells. The test is classed as functional, cell-based. Particulars: Homo sapiens.
The subject of test [11] is BJ. Briefly: growth inhibition of engineered Ras-driven BJ cells – cell-based, alamar blue fluorescence, cherrypicked samples, dose response (AID 2631).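 Further: confirmatory dose-response assay in RAS-dependent BJ fibroblasts engineered with TERT, LT and ST, with cytotoxicity read by fluorescence.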 The format is functional. Particulars: Homo sapiens.
A short description of test [12]: microbe, parasite or virus in culture. The test is classed as functional. Particulars: Mycobacterium tuberculosis.
Test [13] has as its system BJ. In words: BJ-TERT-LT-ST fibroblast viability loss – cell-based, RAS-independent, luminescence, dose response (AID 1935).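 Further: BJ fibroblasts immortalized with TERT plus LT and ST oncogenes.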 Particulars: Homo sapiens. The test is classed as functional.
Test [14] deals with Escherichia coli. In words: microbe, parasite or virus in culture.
Test [15] is described as follows: Luminescence-based dose response cell-based high throughput screening assay for cytotoxic compounds using the IEC-6 intestinal epithelial cell line. [Related pubchem assays: 1858 (Summary AID.), 1825 (Counterscreen.), 1907 (Confirmation screen.)]. The test is classed as functional. Background: Counterscreens check selectivity or assay interference.
Test [16] has as its target T1, Type-1 angiotensin II receptor (Homo sapiens, UniProt P30556).
T1 sequence (P30556 whole entry): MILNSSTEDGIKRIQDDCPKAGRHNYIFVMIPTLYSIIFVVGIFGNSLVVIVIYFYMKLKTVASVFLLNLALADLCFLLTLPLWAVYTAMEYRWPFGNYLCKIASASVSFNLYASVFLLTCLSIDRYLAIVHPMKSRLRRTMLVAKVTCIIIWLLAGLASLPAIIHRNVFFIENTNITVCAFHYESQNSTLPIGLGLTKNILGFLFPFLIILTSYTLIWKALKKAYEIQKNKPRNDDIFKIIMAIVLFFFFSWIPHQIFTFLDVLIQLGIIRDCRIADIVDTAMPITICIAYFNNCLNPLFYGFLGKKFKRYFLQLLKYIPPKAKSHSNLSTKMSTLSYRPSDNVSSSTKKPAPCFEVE
Briefly: antagonism of angiotensin II type 1 receptor – cell-based, uHTS hits, selectivity assay for APJ receptor antagonist project, dose response (AID 463214).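 Further: antagonist potency against angiotensin II stimulated AT1 response.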 The format is functional.

Test [17] concerns Escherichia coli. Briefly: microbe, parasite or virus in culture. The source holds these as a separate data set.
Test [18] has as its target Heat shock protein HSP 90-alpha (Homo sapiens, UniProt P07900). The test is classed as functional, organism-based.
The target of test [19] is Serine/threonine-protein phosphatase (Homo sapiens, UniProt Q9BPW0). In words: inhibition of protein phosphatase 5 activity – biochemical, fluorescence, dose response (AID 2395).
Serine/threonine-protein phosphatase, sequence (Q9BPW0 whole entry): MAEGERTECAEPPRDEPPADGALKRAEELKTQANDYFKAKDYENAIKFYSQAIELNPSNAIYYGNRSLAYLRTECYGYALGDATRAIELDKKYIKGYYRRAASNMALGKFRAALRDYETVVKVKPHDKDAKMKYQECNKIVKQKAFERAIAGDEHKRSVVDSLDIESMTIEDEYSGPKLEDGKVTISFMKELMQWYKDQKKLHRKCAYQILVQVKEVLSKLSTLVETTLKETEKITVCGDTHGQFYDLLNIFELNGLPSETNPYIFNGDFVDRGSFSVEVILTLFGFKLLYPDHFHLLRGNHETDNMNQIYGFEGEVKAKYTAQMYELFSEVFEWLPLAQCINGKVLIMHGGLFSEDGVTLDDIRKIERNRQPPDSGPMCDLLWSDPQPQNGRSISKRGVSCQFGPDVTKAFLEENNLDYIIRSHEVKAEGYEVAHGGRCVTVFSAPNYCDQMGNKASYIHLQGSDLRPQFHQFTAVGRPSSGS
For test [20], the target named is Serine/threonine-protein phosphatase PP1-alpha catalytic subunit (Homo sapiens, UniProt P62136). In words: inhibition of protein phosphatase 1 activity – biochemical, fluorescence, dose response (AID 2394).
Serine/threonine-protein phosphatase PP1-alpha catalytic subunit, sequence (P62136 whole entry): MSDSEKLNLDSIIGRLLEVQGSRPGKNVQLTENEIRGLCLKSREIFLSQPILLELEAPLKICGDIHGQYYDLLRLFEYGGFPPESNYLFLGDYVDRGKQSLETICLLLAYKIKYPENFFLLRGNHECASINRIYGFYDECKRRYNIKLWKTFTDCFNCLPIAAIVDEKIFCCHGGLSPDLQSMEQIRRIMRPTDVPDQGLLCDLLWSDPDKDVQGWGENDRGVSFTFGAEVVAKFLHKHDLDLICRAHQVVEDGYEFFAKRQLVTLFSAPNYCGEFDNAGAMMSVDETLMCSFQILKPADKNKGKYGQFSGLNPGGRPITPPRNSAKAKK
Test [21] deals with Steroidogenic factor 1 (Homo sapiens, UniProt Q13285). Briefly: Counterscreen for inverse agonists of the liver receptor homolog-1 (LRH-1; NR5A2): Luminescence-based cell-based high throughput dose response assay to identify inverse agonists of the Steroidogenic Factor 1 Nuclear Receptor (SF1; NR5A1). The format is functional.
Steroidogenic factor 1, sequence (Q13285 whole entry): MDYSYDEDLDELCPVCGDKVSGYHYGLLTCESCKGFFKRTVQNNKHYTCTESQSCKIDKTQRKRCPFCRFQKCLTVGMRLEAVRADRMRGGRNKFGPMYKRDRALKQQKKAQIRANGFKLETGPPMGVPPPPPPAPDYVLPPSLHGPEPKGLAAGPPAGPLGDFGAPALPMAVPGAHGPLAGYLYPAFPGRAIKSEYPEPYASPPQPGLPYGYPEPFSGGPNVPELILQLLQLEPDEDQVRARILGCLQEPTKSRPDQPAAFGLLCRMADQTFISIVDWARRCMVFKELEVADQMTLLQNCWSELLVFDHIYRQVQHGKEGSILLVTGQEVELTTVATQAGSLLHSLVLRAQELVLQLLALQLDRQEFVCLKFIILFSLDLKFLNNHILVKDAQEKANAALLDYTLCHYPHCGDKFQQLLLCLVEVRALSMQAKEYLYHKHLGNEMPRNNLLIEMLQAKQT
A short description of test [22]: mitochondrial function rescue without frataxin homolog – Friedreich's ataxia, plus single-dose screen, dose response (AID 1465).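 Further: yeast depleted of Yfh1p frataxin homolog grown on glycerol needing respiration; WST-1 tetrazolium dye reduction as measure of cellular dehydrogenase metabolic activity.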 The test is classed as functional.
For test [23], the target named is Nuclear receptor subfamily 5 group A member 2 (Homo sapiens, UniProt O00482). The format is functional, cell-based.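 Further: HEK293T cells transfected with LRH-1 and a StAR promoter luciferase reporter; potency for inhibitors that lower LRH-1 driven reporter light.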
Nuclear receptor subfamily 5 group A member 2, sequence (O00482 whole entry): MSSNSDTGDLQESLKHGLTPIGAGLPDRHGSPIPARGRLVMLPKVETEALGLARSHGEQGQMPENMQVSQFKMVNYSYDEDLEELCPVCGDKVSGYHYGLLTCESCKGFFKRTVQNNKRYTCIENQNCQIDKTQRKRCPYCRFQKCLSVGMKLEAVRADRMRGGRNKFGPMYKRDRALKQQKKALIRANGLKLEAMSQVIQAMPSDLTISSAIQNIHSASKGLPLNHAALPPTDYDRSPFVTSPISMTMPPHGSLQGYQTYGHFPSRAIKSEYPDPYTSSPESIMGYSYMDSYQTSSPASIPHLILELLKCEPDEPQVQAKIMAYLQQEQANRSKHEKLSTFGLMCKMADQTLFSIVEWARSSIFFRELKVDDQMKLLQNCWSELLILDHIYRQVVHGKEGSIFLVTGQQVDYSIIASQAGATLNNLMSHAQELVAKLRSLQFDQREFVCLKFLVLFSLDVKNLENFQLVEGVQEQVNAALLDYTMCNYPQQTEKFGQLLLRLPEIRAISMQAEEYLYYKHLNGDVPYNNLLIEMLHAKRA
Test [24] is described as follows: nonselective StAR promoter luciferase inhibitors – cell-based, luminescence, luciferase reporter, counter-screen for LRH-1 inverse agonist project, dose response (AID 651969). The test is classed as functional. (In a reporter assay the amount or activity of a reporter protein is the signal.)

Regarding `CC(=O)Nc1ccc2c(c1)ncn2-c1ccccc1`, the 50% effective concentration (EC50) in test [1] is 0.46 µM (active); in test [2] it was < 0.1 µM (inconclusive); in test [3] it was 0.608 µM (active); in test [4] it was 0.218 µM (active); in [5] it was > 120 µM (not active).
`Cc1ccc(C(=O)Sc2cccccc2=O)cc1`: the 50% effective concentration (EC50) in test [6] is 0.659 µM (inconclusive); in test [8] it was > 40 µM (inactive); in test [9], 25.5 µM (active); in test [10] it was 26 µM (active); in [11], 0.075 µM (active); in test [13] it was 54.9 µM (active). In addition, the CC50 in [7] is 48.4 µM (active); in test [12], 11.5 µM (active). For the same compound, the concentration at half-maximal activity (AC50) in test [14] was 17 µM (active); in test [17], 12.7 µM (active); in [18] it was 6.06 µM (active). For the same compound, the concentration for half-maximal inhibition (IC50) in [15] was 0.848 µM (active); in [16], < 1.25 µM (active).
Turning to `COCCNC(=O)c1c(N)n(CCC(C)C)c2nc3ccccc3nc12`, the half-inhibitory concentration (IC50) in test [19] is listed as 13.4 µM (not active); in [20], 56.5 µM (not active).
As to `CC1CCCN(c2cc(N(C)CCO)c([N+](=O)[O-])c3nonc23)C1` (centres undefined), the IC50 in test [21] is 7.01 µM (active); in [23] it was 12.3 µM (inactive); in test [24], 35.9 µM (inactive). Besides, the half-maximal effective concentration (EC50) in test [22] is > 100 µM (active).
